Experimental data from the supplement of paper PMC10307832.

Tests used:
Assay in all cases: relative viability (nuclei count vs DMSO), 5 days (fraction); higher = more cells survive
IMD-0354 + Dasatinib = compound: O=C(Nc1cc(C(F)(F)F)cc(C(F)(F)F)c1)c1cc(Cl)ccc1O [IMD-0354] + Cc1nc(Nc2ncc(C(=O)Nc3c(C)cccc3Cl)s2)cc(N2CCN(CCO)CC2)n1 [Dasatinib] (partner 0.075 µM)
In short: (§1)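 Lung cancer cell lines were pin-tool dosed in 1536-well plates on the day after seeding, with either a lone drug or a fixed anchor-drug dose plus five library-drug doses (not always all listed) in √10 steps. Nuclei were counted on 4× images after 5 days. Relative viability is the ratio of treated-well to vehicle-well nuclei counts, with each value a median of duplicate plates.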

CX-5461 + Crizotinib = compound: Cc1cnc(CNC(=O)c2c(=O)c3ccc(N4CCCN(C)CC4)nc3n3c2sc2ccccc23)cn1 [CX-5461] + C[C@@H](Oc1cc(-c2cnn(C3CCNCC3)c2)cnc1N)c1c(Cl)ccc(F)c1Cl [Crizotinib] (partner 1 µM)
In short: as §1

IMD-0354 + Navitoclax = compound: O=C(Nc1cc(C(F)(F)F)cc(C(F)(F)F)c1)c1cc(Cl)ccc1O [IMD-0354] + CC1(C)CCC(c2ccc(Cl)cc2)=C(CN2CCN(c3ccc(C(=O)NS(=O)(=O)c4ccc(N[C@H](CCN5CCOCC5)CSc5ccccc5)c(S(=O)(=O)C(F)(F)F)c4)cc3)CC2)C1 [Navitoclax] (partner 0.5 µM)
In short: as §1

IMD-0354 + Luminespib = compound: O=C(Nc1cc(C(F)(F)F)cc(C(F)(F)F)c1)c1cc(Cl)ccc1O [IMD-0354] + CCNC(=O)c1noc(-c2cc(C(C)C)c(O)cc2O)c1-c1ccc(CN2CCOCC2)cc1 [Luminespib] (partner 0.01 µM)
In short: as §1

Row | Cell Line | relative viability (IMD-0354 + Dasatinib; first compound 0.04 µM) | relative viability (IMD-0354 + Dasatinib; first compound 0.1265 µM) | relative viability (IMD-0354 + Dasatinib; first compound 0.4 µM) | relative viability (IMD-0354 + Dasatinib; first compound 1.265 µM) | relative viability (IMD-0354 + Dasatinib; first compound 4 µM) | relative viability (CX-5461 + Crizotinib; first compound 0.01 µM) | relative viability (CX-5461 + Crizotinib; first compound 0.03162 µM) | relative viability (CX-5461 + Crizotinib; first compound 0.1 µM) | relative viability (CX-5461 + Crizotinib; first compound 0.3162 µM) | relative viability (CX-5461 + Crizotinib; first compound 1 µM) | relative viability (IMD-0354 + Navitoclax; first compound 0.04 µM) | relative viability (IMD-0354 + Navitoclax; first compound 0.1265 µM) | relative viability (IMD-0354 + Navitoclax; first compound 0.4 µM) | relative viability (IMD-0354 + Navitoclax; first compound 1.265 µM) | relative viability (IMD-0354 + Navitoclax; first compound 4 µM) | relative viability (IMD-0354 + Luminespib; first compound 0.04 µM) | relative viability (IMD-0354 + Luminespib; first compound 0.1265 µM) | relative viability (IMD-0354 + Luminespib; first compound 0.4 µM) | relative viability (IMD-0354 + Luminespib; first compound 1.265 µM) | relative viability (IMD-0354 + Luminespib; first compound 4 µM)
1 | 201T | 0.625 | 0.586 | 0.479 | 0.283 | 0.346 | 1.07 | 1.02 | 1.02 | 1.03 | 1.01 | 1.27 | 1.25 | 0.77 | 1 | 0.752 | 1.19 | 1.04 | 0.678 | 0.638 | 0.278
2 | A549 | – | – | – | – | – | 0.824 | 0.804 | 0.357 | 0.655 | 0.0561 | 1.37 | 1.19 | 0.54 | 0.0726 | 0.0514 | – | – | – | – | –
3 | A-427 | 0.813 | 0.772 | 0.346 | 0.112 | 0.137 | 1.04 | 1.08 | 1 | – | 0.888 | 0.989 | 0.983 | 0.654 | 0.546 | 0.115 | 1.06 | 0.985 | 0.457 | 0.301 | 0.166
4 | ABC-1 | 0.67 | 0.673 | 0.279 | 0.165 | 0.228 | 1.07 | 1.57 | – | 0.57 | 0.323 | – | – | – | – | – | 0.381 | 0.82 | 0.32 | 0.237 | 0.307
5 | BEN | 0.319 | 0.315 | 0.246 | 0.227 | 0.165 | 1 | 0.905 | 0.912 | 0.832 | 0.752 | 0.0569 | 0.0541 | 0.0659 | 0.0403 | 0.0444 | 0.159 | 0.533 | 0.256 | 0.161 | 0.139
6 | CAL-12T | 0.356 | 0.387 | 0.255 | 0.0944 | 0.146 | 0.564 | 0.588 | – | 0.653 | 0.365 | 1.33 | 1.08 | 0.629 | 0.358 | 0.156 | 0.432 | 0.434 | 0.338 | 0.126 | 0.172
7 | COR-L23 | 0.426 | 0.475 | 0.37 | 0.0763 | 0.201 | 0.63 | 0.797 | 0.482 | 0.602 | 0.256 | 0.891 | 0.961 | 0.375 | 0.0982 | 0.147 | 0.583 | 0.53 | 0.402 | 0.115 | 0.166
8 | COR-L 105 | 0.401 | 0.316 | 0.283 | 0.246 | 0.197 | 1.12 | 0.992 | 0.861 | 0.745 | 0.325 | 0.731 | 0.684 | 0.644 | 0.374 | 0.269 | 0.891 | 0.906 | 0.463 | 0.317 | 0.236
9 | Calu-6 | – | – | – | – | – | 0.861 | 0.809 | 0.722 | 0.723 | 0.289 | 0.94 | 0.903 | 0.355 | 0.122 | 0.104 | – | – | – | – | –
10 | ChaGo-K-1 | 0.635 | 0.59 | 0.434 | 0.2 | 0.237 | 1.17 | 1.21 | 1.06 | 0.341 | 0.79 | 1.43 | 1.48 | 0.672 | 0.296 | 0.327 | 0.639 | 0.566 | 0.364 | 0.223 | 0.228
11 | EBC-1 | – | – | – | – | – | 0.174 | 0.207 | 0.19 | 0.215 | 0.156 | 0.41 | 0.374 | 0.334 | 0.144 | 0.185 | – | – | – | – | –
12 | EKVX | 0.32 | 0.505 | 0.445 | 0.409 | 0.272 | 1.12 | 0.997 | 0.899 | – | 0.827 | 0.967 | 1.11 | – | 0.573 | 0.206 | 1.05 | 0.672 | 0.783 | 0.767 | 0.117
13 | EMC-BAC-2 | 0.313 | 0.313 | 0.235 | 0.19 | 0.218 | 0.782 | 0.839 | 0.725 | 0.541 | 0.74 | 1.2 | 1.17 | 0.617 | 0.977 | 0.219 | 1.28 | 1.13 | 0.537 | 0.651 | 0.284
14 | EPLC-272H | 0.511 | 0.279 | 0.353 | 0.121 | 0.0731 | 1.04 | 1.01 | 0.941 | – | 0.985 | 1.45 | 1 | 0.54 | 1.06 | 0.25 | 0.51 | 0.322 | 0.409 | 0.22 | 0.131
15 | H3255 | 0.303 | 0.348 | 0.264 | 0.235 | 0.282 | 0.849 | 0.957 | 0.883 | 0.268 | 0.662 | 0.394 | 0.715 | 0.408 | 0.089 | 0.144 | 0.776 | 0.845 | 0.778 | 0.293 | 0.285
16 | HARA | 0.324 | 0.253 | 0.185 | 0.103 | 0.0678 | 1.16 | 1.14 | 0.941 | 0.206 | 0.954 | 0.952 | 1.11 | 0.36 | 0.342 | 0.131 | 0.863 | 0.689 | 0.37 | 0.16 | 0.125
17 | HCC-15 | 0.613 | 0.571 | 0.375 | 0.094 | 0.164 | 0.884 | 0.888 | 0.765 | 0.766 | 0.691 | 0.659 | 0.652 | 0.362 | 0.297 | 0.166 | 0.236 | 0.257 | 0.275 | 0.104 | 0.0925
18 | HCC-44 | – | – | – | – | – | 0.796 | 0.832 | 0.823 | 0.782 | 0.801 | 0.953 | 0.951 | 0.446 | 0.203 | 0.215 | 0.737 | 1.1 | 0.786 | 0.311 | 0.239
